From US8258309B2, “Azapeptide derivatives” (priority 2007, dated 2012)

Legend:
[1] = Chimp pharmacokinetics Run A, IV or PO co-dosing of atazanavir and Compounds 114, 120, 122; format: in vivo, chimpanzee; details: for concentration at 24 h: concentration detected intact in urine
Method: Chimp Pharmacokineties. Run A: A 4 mg/mL solution of atazanavir and each of Compounds 114, 120 and 122 were prepared in 10% DMI (dimethyl isosorbide), 15% EtOH, 35% PG in D5W. Specifically, for each compound, 240 mgs of compound was dissolved in a solution composed of 6 mL of DMI, 9 mL of EtOH and 21 mL PG. Once the compound was fully dissolved, 24 mL of D5W was added and the solution mixed.
Fifty-five mL of each drug solution is then combined and the mixture was sterile filtered using a 0.2 μm filter. This produced 220 mL of a 1:1:1:1 mixture atazanavir:Compound 114:Compound 120:Compound 122. The final concentration of each drug in the solution was 1 mg/mL. Each animal received 50 mL of this solution through either IV or PO routes.
(§1) Four chimps (two male and two female) were used in this study and were fasted overnight prior to administration of the compound solution. Animals were sedated with ketamine and/or telazol prior to dosing. Intravenous dosing was achieved by IV infusion over 30 minutes.
(§2) Approximately 4.5 mL of blood was collected into vacutainer tubes with sodium heparin as an anticoagulant at 0 (preinfusion), 15 min., 29.5 min (immediately before the end of the infusion), and then at 6, 15, 30, and 45 minutes, and 1, 2, 4, 6, 8, 10, 12, 24 hours after the infusion is stopped. A similar procedure was used to collect blood after oral dosing with samples taken at 0 (predose), 15, and 30 minutes, and at 1, 1.5, 2, 4, 6, 8, 10, 12, 24 hours postdose. Following sample collection, the vacutainer tubes were rocked by hand several times to insure adequate mixing. Blood samples were placed immediately on wet ice and centrifuged within 1 hour from time of collection. Following centrifugation, the resulting plasma was stored frozen at −70° C. until analysis. The results are summarized in FIGS. 4 and 5 and tables 6 and 7.

[2] = Microsomal assay: stability in human liver microsomes; format: in vitro ADME; details: human, liver microsomes, pH 7.4, human liver microsomes, repeated assay (Table 3); read-out: t1/2 (min) Avg ± SD (n = 3)
Method: Microsomal Assay. Human liver microsomes (20 mg/mL, pool of 50 individuals) were obtained from Xenotech LLC (Lenexa, Kans.). The incubation mixtures are prepared as follows. Stock solutions (10 mM) solutions of test Compounds 103, 106, 122 and of atazanavir were prepared in DMSO. The 10 mM stock solutions were diluted to 1 mM in acetonitrile (ACN). […] The microsome-test compound mixtures were added to wells of a 2 mL 96-well deep well polypropylene plate in triplicate. The plate was warmed to 37° C. before initiating the reactions by addition of prewarmed NADPH in 0.1 M potassium phosphate buffer, pH 7.4, containing 3 mM MgCl2. The final reaction mixture composition contained: • Liver Microsomes 0.5 mg/mL • NADPH 2 mM • Potassium Phosphate, pH 7.4 100 mM • Magnesium Chloride 3 mM • Test Compound 1.0 μM. The reaction mixtures were incubated at 37° C. and 50 μL aliquots were removed at 0, 3, 7, 12, 20, and 30 minutes and added to shallow-well 96-well plates which contained 50 μL of ice-cold ACN with internal standard to stop the reactions. The plates were stored at −20° C. for 30 minutes, after which 100 μL of water was added to the wells of the plate before centrifugation to pellet precipitated proteins. Supernatants were transferred to another 96-well plate and analyzed for amounts of parent remaining by LC-MS/MS using an Applied Biosystems API 4000 mass spectrometer. […] Data analysis was performed using Microsoft Excel Software. […] The results are shown in FIGS. 2 and 3 and in Table 3, below: […]

in vivo = details: chimpanzee, po; for concentration detected intact in urine: 24 h; for concentration at 24 h: concentration detected intact in urine
Method: as §1, §2
Run B: Same as Run A, except the dose was 150 mg orally of each of atazanavir and compounds 114 and 120, and the vehicle was 10 percent ethanol, 40 percent polypropylglycol in 2.5 percent citric acid.

HIV-1RF = experiment: HIV anti-viral activity in CEM-SS cells infected with HIV-1 (XTT); format: cell-based; details: for EC50: Human immunodeficiency virus 1, CEM-SS
Method: The HIV antiviral activity of compound of the present invention was tested in CEM-SS cells infected with HIV-1. CEM-SS cells were passaged in T-75 flasks in RPMI 1640 medium supplemented with 10% heat inactivated fetal bovine serum, 2 mmol/L L-glutamine, 100 U/mL penicillin and 100 flg/mL streptomycin prior to use in the antiviral assay. On the day preceding the assay, the cells were split 1:2 to assure they were in an exponential growth phase at the time of infection. Total cell and viability quantification was performed using a hemocytometer and Trypan Blue dye exclusion. Cell viability was greater than 95% for the cells to be utilized in the assay. The cells were resuspended at 5×10^4 cells per mL in tissue culture medium and added to the drug-containing microtiter plates in a volume of 50 μL.
The virus used for the assay was the lymphocyte-tropic virus strain HIV-IRF. The virus was obtained from the NIH AIDS Research and Reference Reagent Program and stock virus pools were produced in CEM-SS cells. A pre-titered aliquot of virus was removed from the freezer (−80° C.) and allowed to thaw slowly to room temperature in a biological safety cabinet. Virus was resuspended and diluted into tissue culture medium such that the amount of virus added to each well in a volume of 50 μL was the amount determined to yield 85 to 95% cell killing at 6 days post-infection.
Each plate contains cell control wells (cells only), virus control wells (cells plus virus), compound toxicity wells (cells plus compound only), compound colorimetric control wells (compound only) as well as experimental wells (compound plus cells plus virus). Samples were tested in triplicate with eleven half-log dilutions per compound starting at 0.1 μM of compound. Compounds 104, 120 and 122 were tested, as was atazanavir and AZT. […]
Following incubation at 37° C. in a 5% CO2 incubator, the test plates were stained with the tetrazolium dye XTT (2,3-bis(2-methoxy-4-nitro-5sulfophenyl)-5-[(phenylamino)carbonyl]-2H-tetrazolium hydroxide). XTT-tetrazolium was metabolized by the mitochondrial enzymes of metabolically active cells to a soluble formazan product, allowing rapid quantitative analysis of the inhibition of HIV induced cell killing by anti-HIV test substances. XTT solution was prepared daily as a stock of 1 mg/mL in RPMI 1640. Phenazine methosulfate (PMS) solution was prepared at 0.15 mg/mL in PBS and stored in the dark at −20° C. XTT/PMS stock was prepared immediately before use by adding 40 μL of PMS per mL of XTT solution. Fifty microliters of XTT/PMS was added to each well of the plate and the plate was reincubated for 4 hours at 37° C. Plates were sealed with adhesive plate sealers and shaken gently or inverted several times to mix the soluble formazan product and the plate was read spectrophotometrically at 450/650 nm with a Molecular Devices Vmax plate reader.
Raw data was collected from the Softmax Pro 4.6 software and imported into a Microsoft Excel 2003 spreadsheet for analysis by linear curve fit calculations.

[3] = chimp A242E, PO, 24 hours, Run A
[4] = chimp A336C, IV, 24 hours, Run A

Row | Ratio of urine concentration, compound:Atazanavir [1, 3] | Ratio of urine concentration, compound:Atazanavir [1, 4] | Ratio of urine concentration, compound:Atazanavir ([1]; chimpanzee, in vivo, iv, 24 h) | concentration detected intact in urine ([1]; chimpanzee, in vivo, iv, 24 h) [ng/mL] | concentration at 24 h ([1]; chimpanzee, in vivo, iv) [ng/mL] | Ratio of urine concentration, compound:Atazanavir ([1]; chimpanzee, in vivo, po, 24 h) | concentration detected intact in urine ([1]; chimpanzee, in vivo, po, 24 h) [ng/mL] | concentration at 24 h ([1]; chimpanzee, in vivo, po) [ng/mL] | half-life at 1 μM [2] [min] | concentration detected intact in urine (in vivo) [ng/mL] | concentration at 24 h (in vivo) [ng/mL] | EC50 (HIV-1RF; +0.5 mg/mL AAGP) [nM] | EC50 (HIV-1RF; +10 mg/mL HAS) [nM] | EC50 (HIV-1RF; +AAGP + HSA) [nM] | EC50 (HIV-1RF; No Serum Protein Added (cell culture medium)) [nM] | Compound | fold less potent in the presence of HSA than in cell culture medium alone (HIV-1RF; 10 mg/mL HSA versus cell culture medium)
1 | 2.16 | 1.74 | 1.52 | 3110 | 3030 | 2.15 | 1110 | 1230 | 26.9 ± 1.4 | 5030 | 2930 | 3 | 1 | 4 | 0.5 | [2H]C([2H])([2H])OC(=O)N[C@H](C(=O)NN(Cc1ccc(-c2ccccn2)cc1)C[C@H](O)[C@H](Cc1ccccc1)NC(=O)[C@@H](NC(=O)OC([2H])([2H])[2H])C(C([2H])([2H])[2H])(C([2H])([2H])[2H])C([2H])([2H])[2H])C(C)(C)C [Compound 120, 1,14-Di(methyl-d3)(3S,8S,9S,125)-3-(1,1-dimethylethyl)-12-[(1,1-dimethylethyl)-d9]-8-hydroxy-4,11-dioxo-9-(phenlymethyl)-6-[[4-(2-pyridinyl)phenyl]methyl]-2,5,6,10,13-pentaazatetradecanedioate] | two- to greater than three-fold less potent
2 | 1.8 | 1.5 | 1.3 | 2820 | 2750 | 1.8 | 963 | 1070 | 31.5 ± 0.8 | 4580 | 2530 |  |  |  |  | [2H]C([2H])([2H])OC(=O)N[C@H](C(=O)N[C@@H](Cc1ccccc1)[C@@H](O)CN(Cc1ccc(-c2ccccn2)cc1)NC(=O)[C@@H](NC(=O)OC)C(C)(C)C)C(C([2H])([2H])[2H])(C([2H])([2H])[2H])C([2H])([2H])[2H] [Compound 114, 1-Methyl-14-(methyl-d3)(3S,8S,9S,12S)-3-(1,1-dimethylethyl)-12-[(1,1-dimethylethyl)-d9]-8-hydroxy-4,11-dioxo-9-(phenylmethyl)-6-[[4-(2-pyridinyl)phenyl]methyl]-2,5,6,10,13-pentaazatetradecanedioate] | 
